Results: publication PMC6152279, “Characterization of the Fifth Putative Acetylcholinesterase in the Wolf Spider, Pardosa pseudoannulata” (Molecules : A Journal of Synthetic Chemistry and Natural …, 2017)
Where “and” joins values, the source holds several entries; their conditions need not be identical. Equal entries are not always repeated. Where two headings read alike, the source gives them in different places.

Key:
PpAChE5 [1] = target: T1, PpAChE5 (Pardosa pseudoannulata, UniProt A0A1B1FIV8); test: Substrate hydrolysis kinetics of recombinant PpAChE5; format: biochemical; conditions: for Km / Vmax: substrate hydrolysis by PpAChE5, optimal pH
T1 sequence (A0A1B1FIV8 25-553): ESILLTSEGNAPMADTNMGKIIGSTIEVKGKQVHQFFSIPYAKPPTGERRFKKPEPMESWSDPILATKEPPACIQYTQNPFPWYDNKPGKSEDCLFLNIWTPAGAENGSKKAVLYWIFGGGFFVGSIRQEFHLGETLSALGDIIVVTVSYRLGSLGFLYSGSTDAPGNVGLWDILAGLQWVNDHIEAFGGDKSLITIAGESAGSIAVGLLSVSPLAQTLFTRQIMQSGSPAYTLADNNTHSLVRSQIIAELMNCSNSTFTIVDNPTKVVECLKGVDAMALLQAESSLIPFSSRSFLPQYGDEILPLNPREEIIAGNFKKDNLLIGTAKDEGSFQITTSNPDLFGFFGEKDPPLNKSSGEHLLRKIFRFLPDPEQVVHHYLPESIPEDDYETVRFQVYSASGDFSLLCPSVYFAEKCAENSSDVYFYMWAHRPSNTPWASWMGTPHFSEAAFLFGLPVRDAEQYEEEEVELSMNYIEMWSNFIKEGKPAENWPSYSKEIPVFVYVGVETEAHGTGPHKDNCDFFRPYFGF
Source text: (§1) As described previously, complete coding sequence of the new putative ace gene was subcloned into the expression vector pFastBac-HTa with its specific primers (Table 5) and verified by nucleotide sequencing. The vector with an enhanced green fluorescent protein (eGFP, GenBank accession number: AAK15492), which constructed previously in our laboratory was as a control. Using baculovirus-insect expression system, Sf9 cells which infected by the recombinant Bacmid DNAs were used for protein expression, and the baculovirus culture supernatants were collected as the crude enzyme. The culture supernatants of non-infectious Sf9 cells were used as the negative control.
(§2) The methods for enzyme biochemical properties assaying were performed as described previously. Fifty microliters of enzyme, 100 μL of DTNB (75 μM) and 100 μL of substrate at different concentrations were mixed in a 96-well microplate for the enzyme activities detecting. Using Molecular Devices Thermomax Kinetic Microplate Reader, the mixed solutions were monitored for 20 min in 30 s intervals at 405 nm and three replications were used to calculate the mean level of enzyme activity. Different pH of the mixed-reaction solutions were employed for detecting enzyme optimal pH condition. Under the optimal pH of enzyme, the Michaelis–Menten constant value (KM) and maximal reaction velocity (Vmax) for each substrate were determined by fitting the velocity (ν) and substrate concentration ([S], 20–2000 μM) data to ν = Vmax [S]/(KM + [S]) using Prism 5.0 (GraphPad Software, La Jolla, CA, USA). Protein concentration was measured by the Protein-dye Binding Method according to the Micro BCA Protein Assay Kit (ThermoFisher, Waltham, MA, USA) instruction.

PpAChE1 [2] = conditions: cited from earlier work; for Km / Vmax: substrate hydrolysis by PpAChE1
PpAChE3 [3] = conditions: cited from earlier work; for Km / Vmax: substrate hydrolysis by PpAChE3
PpAChE4 [4] = conditions: cited from earlier work; for Km / Vmax: substrate hydrolysis by PpAChE4
PpAChE2 [5] = conditions: cited from earlier work; for Km / Vmax: substrate hydrolysis by PpAChE2
PpAChE1 [6] = conditions: cited from earlier work
PpAChE2 [7] = conditions: cited from earlier work
PpAChE5 [8] = target: T1, PpAChE5; test: Inhibition of enzyme activity (IC50) of PpAChE5; format: biochemical; conditions: for IC50: 10 min preincubation with inhibitor
Source text: as §1, §2
To determine IC50 values of enzyme to different inhibitors, the enzyme was first incubated with an inhibitor at various concentrations ([I]) for 10 min. The residual enzyme activity (in reference to a mixture of the enzyme and buffer) was determined as above and plotted against −log10[I]. The IC50 value for each inhibitor was determined from nonlinear regression analysis of activity and −log10[I] data using Prism 5.0 (GraphPad Software, La Jolla, CA, USA). The bimolecular rate constant (ki) was determined by enzyme reaction premixed with various concentrations of an inhibitor and was fitted using Prism 5.0.

PpAChE3 [9] = conditions: cited from earlier work
PpAChE4 [10] = conditions: cited from earlier work
PpAChE5 [11] = target: T1, PpAChE5; test: Inhibition kinetics (bimolecular rate constant ki) of PpAChE5; format: biochemical; conditions: ATC hydrolysis
Source text: as §1
The methods for enzyme biochemical properties assaying were performed as described previously. Fifty microliters of enzyme, 100 μL of DTNB (75 μM) and 100 μL of substrate at different concentrations were mixed in a 96-well microplate for the enzyme activities detecting. Using Molecular Devices Thermomax Kinetic Microplate Reader, the mixed solutions were monitored for 20 min in 30 s intervals at 405 nm and three replications were used to calculate the mean level of enzyme activity. […] Protein concentration was measured by the Protein-dye Binding Method according to the Micro BCA Protein Assay Kit (ThermoFisher, Waltham, MA, USA) instruction. […]

Q: For `CC(=O)SCC[N+](C)(C)C.[I-]` [ATC, acetylthiocholine iodide], which “Vmax Ratio ATC vs. BTC” value (PpAChE5 [1]; PpAChE5) is on record?
A: 4.6 and 4.68

Q: What about the “Vmax Ratio ATC vs. PTC” value (PpAChE5 [1]; PpAChE5) of the same molecule?
A: 7.2 and 7.26

Q: What about the Km (PpAChE5 [1]) of the same molecule?
A: 1.3 ± 0.163 mM

Q: And the Vmax (PpAChE5 [1])?
A: 428.4 ± 29.2 a nmol/mg·min

Q: And the “Vmax Ratio ATC vs. BTC” value (PpAChE1 [2]; PpAChE1)?
A: 1.18

Q: And the “Vmax Ratio ATC vs. PTC” value (PpAChE1 [2]; PpAChE1)?
A: 1.48

Q: And the Km (PpAChE1 [2])?
A: 537 ± 63.4 µM

Q: And the Vmax (PpAChE1 [2])?
A: 112.6 ± 8.8 c nmol/mg·min

Q: What about the “Vmax Ratio ATC vs. BTC” value (PpAChE3 [3]; PpAChE3) of the same molecule?
A: 3.09

Q: And the “Vmax Ratio ATC vs. PTC” value (PpAChE3 [3]; PpAChE3)?
A: 1.17

Q: And the Km (PpAChE3 [3])?
A: 42.9 ± 5.8 µM

Q: And the Vmax (PpAChE3 [3])?
A: 124.7 ± 11.5 c nmol/mg·min

Q: What about the “Vmax Ratio ATC vs. BTC” value (PpAChE4 [4]; PpAChE4) of the same molecule?
A: 0.82

Q: What about the “Vmax Ratio ATC vs. PTC” value (PpAChE4 [4]; PpAChE4) of the same molecule?
A: 1.74

Q: What about the Km (PpAChE4 [4]) of the same molecule?
A: 61.6 ± 7.5 µM

Q: What about the Vmax (PpAChE4 [4]) of the same molecule?
A: 86.6 ± 9.7 d nmol/mg·min

Q: What about the “Vmax Ratio ATC vs. BTC” value (PpAChE2 [5]; PpAChE2) of the same molecule?
A: 1.09

Q: What about the “Vmax Ratio ATC vs. PTC” value (PpAChE2 [5]; PpAChE2) of the same molecule?
A: 1.62

Q: And the Km (PpAChE2 [5])?
A: 4.41 ± 0.534 mM

Q: What about the Vmax (PpAChE2 [5]) of the same molecule?
A: 253.9 ± 20.4 b nmol/mg·min

Q: With `CCCC(=O)SCC[N+](C)(C)C.[I-]` [BTC, butyrylthiocholine iodide] as the molecule, how does the “Vmax Ratio BTC vs. BTC” value (PpAChE5 [1]; PpAChE5) read?
A: 1.55

Q: And the Km (PpAChE5 [1])?
A: 1.53 ± 0.118 mM

Q: What about the Vmax (PpAChE5 [1]) of the same molecule?
A: 91.6 ± 11.3 b nmol/mg·min

Q: What about the “Vmax Ratio BTC vs. BTC” value (PpAChE1 [2]; PpAChE1) of the same molecule?
A: 1.25

Q: And the Km (PpAChE1 [2])?
A: 859 ± 103 µM

Q: What about the Vmax (PpAChE1 [2]) of the same molecule?
A: 95.4 ± 12.8 b nmol/mg·min

Q: What about the Km (PpAChE3 [3]) of the same molecule?
A: 199 ± 22.3 µM

Q: What about the Vmax (PpAChE3 [3]) of the same molecule?
A: 40.3 ± 5.6 c nmol/mg·min

Q: What about the “Vmax Ratio BTC vs. BTC” value (PpAChE4 [4]; PpAChE4) of the same molecule?
A: 2.12

Q: And the Km (PpAChE4 [4])?
A: 269 ± 35.5 µM

Q: And the Vmax (PpAChE4 [4])?
A: 105.5 ± 8.9 b nmol/mg·min

Q: What about the “Vmax Ratio BTC vs. BTC” value (PpAChE2 [5]; PpAChE2) of the same molecule?
A: 1.49

Q: And the Km (PpAChE2 [5])?
A: 4.54 ± 0.326 mM

Q: And the Vmax (PpAChE2 [5])?
A: 233.9 ± 16.5 a nmol/mg·min

Q: With `C=CC[N+](C)(C)c1ccc(CCC(=O)CCc2ccc([N+](C)(C)CC=C)cc2)cc1.[Br-].[Br-]` [BW284C51, 1,5-bis(4-allyldimethylammoniumphenyl)-pentan-3-one dibromide] as the molecule, how does the IC50 (PpAChE1 [6]; PpAChE1, on ATC hydrolysis) read?
A: 51.2 ± 7.6 nM

Q: And the IC50 (PpAChE2 [7]; PpAChE2, on ATC hydrolysis)?
A: 2540 ± 214 nM

Q: And the “inhibition on ATC hydrolysis activity of PpAChE5” value (PpAChE5 [8]; in words)?
A: strong inhibition

Q: What about the IC50 (PpAChE5 [8]; PpAChE5, on ATC hydrolysis) of the same molecule?
A: 471 ± 69.3 nM

Q: And the IC50 (PpAChE3 [9]; PpAChE3, on ATC hydrolysis)?
A: 36.8 ± 5.3 nM

Q: What about the IC50 (PpAChE4 [10]; PpAChE4, on ATC hydrolysis) of the same molecule?
A: 73.6 ± 10.5 nM

Q: What does the source list for `CNC(=O)Oc1ccc2c(c1)[C@]1(C)CCN(C)[C@@H]1N2C` [Eserine, eserine]?
A: ki (PpAChE5 [11]): 6.24 ± 1.72 b ×10^−7M^−1min^−1; IC50 (PpAChE1 [6]; PpAChE1, on ATC hydrolysis): 117 ± 20.6 nM; IC50 (PpAChE2 [7]; PpAChE2, on ATC hydrolysis): 1860 ± 251 nM; inhibition on ATC hydrolysis activity of PpAChE5 (PpAChE5 [8]; in words): strong inhibition; IC50 (PpAChE5 [8]; PpAChE5, on ATC hydrolysis): 1160 ± 157 nM; IC50 (PpAChE3 [9]; PpAChE3, on ATC hydrolysis): 65.2 ± 18 nM; IC50 (PpAChE4 [10]; PpAChE4, on ATC hydrolysis): 245 ± 39.4 nM

Q: For `CC(C)NP(=O)(NC(C)C)OP(=O)(NC(C)C)NC(C)C` [ISO-OMPA, tetraisopropyl pyrophosphoramide], which IC50 (PpAChE1 [6]; PpAChE1, on BTC hydrolysis) is on record?
A: > 100000 nM

Q: What about the IC50 (PpAChE2 [7]; PpAChE2, on BTC hydrolysis) of the same molecule?
A: 21700 ± 3260 nM

Q: And the “inhibition against BTC hydrolysis” value (PpAChE5 [8]; PpAChE5, BTC hydrolysis, in words)?
A: very weak inhibition

Q: What about the IC50 (PpAChE5 [8]; PpAChE5, on BTC hydrolysis) of the same molecule?
A: > 100000 nM

Q: What about the IC50 (PpAChE3 [9]; PpAChE3, on BTC hydrolysis) of the same molecule?
A: > 100000 nM

Q: What about the IC50 (PpAChE4 [10]; PpAChE4, on BTC hydrolysis) of the same molecule?
A: > 100000 nM

Q: For `CCC(=O)SCC[N+](C)(C)C.[I-]` [PTC, propionylthiocholine iodide], which Km (PpAChE5 [1]) is on record?
A: 1.55 ± 0.129 mM

Q: What about the Vmax (PpAChE5 [1]) of the same molecule?
A: 59.0 ± 7.2 cd nmol/mg·min

Q: What about the Km (PpAChE1 [2]) of the same molecule?
A: 1150 ± 134 µM

Q: And the Vmax (PpAChE1 [2])?
A: 76.2 ± 9.2 c nmol/mg·min

Q: And the Km (PpAChE3 [3])?
A: 504 ± 86.8 µM

Q: And the Vmax (PpAChE3 [3])?
A: 106.2 ± 15.1 b nmol/mg·min

Q: And the Km (PpAChE4 [4])?
A: 279 ± 35.2 µM

Q: What about the Vmax (PpAChE4 [4]) of the same molecule?
A: 49.7 ± 8.4 d nmol/mg·min

Q: And the Km (PpAChE2 [5])?
A: 4.5 ± 0.319 mM

Q: What about the Vmax (PpAChE2 [5]) of the same molecule?
A: 156.8 ± 21.3 a nmol/mg·min
